Measured values taken from ChEMBL document CHEMBL2434921, “New synthetic aliphatic sulfonamido-quaternary ammonium salts as anticancer chemotherapeutic agents” (2013).
Active and inactive are the calls of the source. The rule behind the calls is not given here.

Experiments:
[1] = test system: NCI-H23; experiment: Growth inhibition of human NCI-H23 cells at 0.1 uM after 48 hrs by SRB assay; values are per cent of control; details: NCI-H23, 48 h
[2] = test system: HCT-15; experiment: Growth inhibition of human HCT15 cells after 48 hrs by SRB assay; assay type: functional; details: HCT-15, 48 h
[3] = test system: MDA-MB-231; experiment: Growth inhibition of human MDA-MB-231 cells after 48 hrs by SRB assay; assay type: functional; details: MDA-MB-231, 48 h
[4] = test system: MDA-MB-231; experiment: Growth of human MDA-MB-231 cells at 10 uM after 48 hrs by SRB assay; details: MDA-MB-231, 48 h
[5] = test system: HCT-15; experiment: Growth inhibition of human HCT15 cells at 10 uM after 48 hrs by SRB assay; values are per cent of control; details: HCT-15, 48 h
[6] = test system: NCI-H23; experiment: Growth inhibition of human NCI-H23 cells after 48 hrs by SRB assay; assay type: functional; details: NCI-H23, 48 h
[7] = test system: NCI-H23; experiment: Growth inhibition of human NCI-H23 cells at 3 uM after 48 hrs by SRB assay; values are per cent of control; details: NCI-H23, 48 h
[8] = test system: NUGC-3; experiment: Growth inhibition of human NUGC3 cells after 48 hrs by SRB assay; assay type: functional; details: NUGC-3, 48 h
[9] = test system: NUGC-3; experiment: Growth inhibition of human NUGC3 cells at 3 uM after 48 hrs by SRB assay; values are per cent of control; details: NUGC-3, 48 h
[10] = test system: PC-3; experiment: Growth of human PC3 cells at 10 uM after 48 hrs by SRB assay; details: PC-3, 48 h
[11] = test system: ACHN; experiment: Growth of human ACHN cells at 0.3 uM after 48 hrs by SRB assay
[12] = test system: ACHN; experiment: Growth inhibition of human ACHN cells at 1 uM after 48 hrs by SRB assay; values are per cent of control
[13] = test system: ACHN; experiment: Growth inhibition of human ACHN cells after 48 hrs by SRB assay; assay type: functional
[14] = test system: PC-3; experiment: Growth inhibition of human PC3 cells at 0.1 uM after 48 hrs by SRB assay; values are per cent of control; details: PC-3, 48 h
[15] = test system: HCT-15; experiment: Growth of human HCT15 cells at 0.3 uM after 48 hrs by SRB assay; details: HCT-15, 48 h
[16] = test system: NUGC-3; experiment: Growth of human NUGC3 cells at 0.3 uM after 48 hrs by SRB assay; details: NUGC-3, 48 h
[17] = test system: MDA-MB-231; experiment: Growth of human MDA-MB-231 cells at 3 uM after 48 hrs by SRB assay; values are per cent of control; details: MDA-MB-231, 48 h
[18] = test system: PC-3; experiment: Growth inhibition of human PC3 cells at 1 uM after 48 hrs by SRB assay; values are per cent of control; details: PC-3, 48 h
[19] = test system: ACHN; experiment: Growth of human ACHN cells at 0.1 uM after 48 hrs by SRB assay
[20] = test system: ACHN; experiment: Growth inhibition of human ACHN cells at 3 uM after 48 hrs by SRB assay; values are per cent of control
[21] = test system: MDA-MB-231; experiment: Growth inhibition of human MDA-MB-231 cells at 0.3 uM after 48 hrs by SRB assay; values are per cent of control; details: MDA-MB-231, 48 h
[22] = test system: NUGC-3; experiment: Growth of human NUGC3 cells at 1 uM after 48 hrs by SRB assay; details: NUGC-3, 48 h
[23] = test system: NCI-H23; experiment: Growth of human NCI-H23 cells at 0.3 uM after 48 hrs by SRB assay; details: NCI-H23, 48 h
[24] = test system: MDA-MB-231; experiment: Growth of human MDA-MB-231 cells at 0.1 uM after 48 hrs by SRB assay; details: MDA-MB-231, 48 h
[25] = test system: PC-3; experiment: Growth inhibition of human PC3 cells at 3 uM after 48 hrs by SRB assay; values are per cent of control; details: PC-3, 48 h
[26] = test system: NCI-H23; experiment: Growth inhibition of human NCI-H23 cells at 1 uM after 48 hrs by SRB assay; values are per cent of control; details: NCI-H23, 48 h
[27] = target: Rho-related GTP-binding protein RhoB (Homo sapiens) (UniProt P62745); experiment: Transactivation of RhoB (unknown origin) transfected in human HeLa cells at 5 uM measured over 10 secs by dual luciferase reporter gene assay; assay type: cell-based
Sequence of Rho-related GTP-binding protein RhoB (Homo sapiens) (P62745 whole entry): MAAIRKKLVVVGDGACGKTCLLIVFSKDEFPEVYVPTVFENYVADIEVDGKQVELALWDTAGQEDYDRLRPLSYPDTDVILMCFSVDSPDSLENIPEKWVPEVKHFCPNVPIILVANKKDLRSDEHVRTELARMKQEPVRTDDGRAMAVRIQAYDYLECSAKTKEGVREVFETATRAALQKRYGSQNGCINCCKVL

[28] = test system: HCT-15; experiment: Growth inhibition of human HCT15 cells at 0.1 uM after 48 hrs by SRB assay; values are per cent of control; details: HCT-15, 48 h
[29] = test system: ACHN; experiment: Growth of human ACHN cells at 10 uM after 48 hrs by SRB assay
[30] = test system: HCT-15; experiment: Growth inhibition of human HCT15 cells at 1 uM after 48 hrs by SRB assay; values are per cent of control; details: HCT-15, 48 h
[31] = test system: NCI-H23; experiment: Growth of human NCI-H23 cells at 10 uM after 48 hrs by SRB assay; details: NCI-H23, 48 h
[32] = test system: NUGC-3; experiment: Growth of human NUGC3 cells at 0.1 uM after 48 hrs by SRB assay; details: NUGC-3, 48 h
[33] = test system: NUGC-3; experiment: Growth inhibition of human NUGC3 cells at 10 uM after 48 hrs by SRB assay; values are per cent of control; details: NUGC-3, 48 h
[34] = test system: HCT-15; experiment: Growth of human HCT15 cells at 3 uM after 48 hrs by SRB assay; details: HCT-15, 48 h
[35] = test system: PC-3; experiment: Growth inhibition of human PC3 cells at 0.3 uM after 48 hrs by SRB assay; values are per cent of control; details: PC-3, 48 h
[36] = test system: MDA-MB-231; experiment: Growth of human MDA-MB-231 cells at 1 uM after 48 hrs by SRB assay; details: MDA-MB-231, 48 h
[37] = test system: PC-3; experiment: Growth inhibition of human PC3 cells after 48 hrs by SRB assay; assay type: functional; details: PC-3, 48 h

| SMILES | growth, % of control at 0.1 µM [1] [%] | GI50 [2] [nM] | GI50 [3] [nM] | growth, % of control at 10 µM [4] [%] | growth, % of control at 10 µM [5] [%] | GI50 [6] [nM] | growth, % of control at 3 µM [7] [%] | GI50 [8] [nM] | growth, % of control at 3 µM [9] [%] | growth, % of control at 10 µM [10] [%] | growth, % of control at 0.3 µM [11] [%] | growth, % of control at 1 µM [12] [%] | GI50 [13] [nM] | growth, % of control at 0.1 µM [14] [%] | growth, % of control at 0.3 µM [15] [%] | growth, % of control at 0.3 µM [16] [%] | growth, % of control at 3 µM [17] [%] | growth, % of control at 1 µM [18] [%] | growth, % of control at 0.1 µM [19] [%] | growth, % of control at 3 µM [20] [%] | further results |
| --- | --- | --- | --- | --- | --- | --- | --- | --- | --- | --- | --- | --- | --- | --- | --- | --- | --- | --- | --- | --- | --- |
| CCCCCCCCCCCCCCCCS(=O)(=O)N(C)CC[N+](C)(CC)CC | 90.7 | 1490 | 1120 | 15.6 | 21.1 | 620 | 22.5 | 390 | 9.2 | -21.6 | 89.5 | 72.7 | 1290 | 100 | 100 | 88.1 | 35.7 | 50.7 | 90.4 | 48.7 | growth, % of control at 0.3 µM [21]: 96.2%; growth, % of control at 1 µM [22]: 30.2%; growth, % of control at 0.3 µM [23]: 90.5%; growth, % of control at 0.1 µM [24]: 98.5%; growth, % of control at 3 µM [25]: 8.6%; growth, % of control at 1 µM [26]: 51.3%; Activity [27]: Active; growth, % of control at 0.1 µM [28]: 98.5%; growth, % of control at 10 µM [29]: 5%; growth, % of control at 1 µM [30]: 76.2%; growth, % of control at 10 µM [31]: 0.4%; growth, % of control at 0.1 µM [32]: 93.6%; growth, % of control at 10 µM [33]: 1.2%; growth, % of control at 3 µM [34]: 42.7%; growth, % of control at 0.3 µM [35]: 92.8%; growth, % of control at 1 µM [36]: 68.4%; GI50 [37]: 560 nM |
| CCCCCCCCCCCCCCS(=O)(=O)NCCC[N+](C)(C)C [TRIMETHYL-[3-(TETRADECANE-1-SULFONYLAMINO)-PROPYL]-AMMONIUM IODIDE] | 84.7 | 940 | 1400 | 25.1 | 22 | 460 | -5.1 | 380 | 21.5 | -7.8 | 88.6 | 96.8 | 2040 | 86.7 | 91.2 | 73.2 | 45.3 | 52.2 | 88 | 49.9 | growth, % of control at 0.3 µM [21]: 86.4%; growth, % of control at 1 µM [22]: 43.1%; growth, % of control at 0.3 µM [23]: 86.5%; growth, % of control at 0.1 µM [24]: 84.6%; growth, % of control at 3 µM [25]: 9.5%; growth, % of control at 1 µM [26]: 48.4%; Activity [27]: Active; growth, % of control at 0.1 µM [28]: 94.3%; growth, % of control at 10 µM [29]: 29.7%; growth, % of control at 1 µM [30]: 66.5%; growth, % of control at 10 µM [31]: -34.5%; growth, % of control at 0.1 µM [32]: 84.4%; growth, % of control at 10 µM [33]: 5.4%; growth, % of control at 3 µM [34]: 31.5%; growth, % of control at 0.3 µM [35]: 80.6%; growth, % of control at 1 µM [36]: 76.7%; GI50 [37]: 450 nM |
| CCCCCCCCCCCCCCS(=O)(=O)N(C)CC[N+](C)(C)CC | 92.5 | 1610 | 990 | 18.2 | 21.7 | 590 | 53.6 | 300 | 19 | -12.3 | 104 | 77.1 | 1300 | 96.5 | 96.8 | 95.6 | 36.4 | 57.1 | 105 | 50.1 | growth, % of control at 0.3 µM [21]: 91.6%; growth, % of control at 1 µM [22]: 43.3%; growth, % of control at 0.3 µM [23]: 94.6%; growth, % of control at 0.1 µM [24]: 99%; growth, % of control at 3 µM [25]: 13.3%; growth, % of control at 1 µM [26]: 86.6%; Activity [27]: Active; growth, % of control at 0.1 µM [28]: 98.2%; growth, % of control at 10 µM [29]: 25%; growth, % of control at 1 µM [30]: 76.3%; growth, % of control at 10 µM [31]: 16.3%; growth, % of control at 0.1 µM [32]: 96.8%; growth, % of control at 10 µM [33]: 10.1%; growth, % of control at 3 µM [34]: 41.1%; growth, % of control at 0.3 µM [35]: 95.3%; growth, % of control at 1 µM [36]: 63.1%; GI50 [37]: 340 nM |
